Earlier results as cited in patent publication US20120178147A1, “MICROBIAL CULTURES AND METHODS FOR ANAEROBIC BIOREMEDIATION” (priority 2009, published 2012).
Like-named read-outs stand apart in the source and are kept apart here.

Legend:
North American bullfrog = details: alters thyroid hormone-mediated postembryonic development; cited from earlier work
[1] = continuous-flow activated sludge, 0.5 to 2 mg/L TCS (Stasinakis et al., 2007); cited from earlier work
Rainbow trout = details: in vivo; cited from earlier work
Scenedesmus subspicatus = details: cited from earlier work
[2] = tested on: Gram-positive bacteria, such as staphylococcus; details: cited from earlier work
E. coli = details: cited from earlier work
MRSA = details: cited from earlier work
[3] = cited from earlier work

SMILES | concentration acting as an endocrine disruptor (North American bullfrog) | removed by biodegradation and sorption [1] | NOEC (Rainbow trout) | median EC50 (Rainbow trout) | 96-h effective concentration (EC50) for growth (Scenedesmus subspicatus) | 96-h no-observed effect concentration (NOEC) (Scenedesmus subspicatus) | concentration that effectively inhibits Gram-positive bacteria [2] | activity in MIC experiments (E. coli) | activity in MIC experiments (MRSA) | biodegradation ([3]; TCC 20 μg/L) | biodegradation ([3]; TCC 2000 μg/L) | biodegradation of the dichloroaniline ring ([3]; bench scale CFAS system) | biodegradation of the p-chloroaniline ring ([3]; bench scale CFAS system)
Oc1cc(Cl)ccc1Oc1ccc(Cl)cc1Cl [TCS, 5-chloro-2-[2,4-dichloro-phenoxy]-phenol] | 0.15 ± 0.03 µg/L | 90% | 34 µg/L | 350 µg/L | 1.4 µg/L | 0.69 µg/L | – | – | – | – | – | – | –
O=C(Nc1ccc(Cl)cc1)Nc1ccc(Cl)c(Cl)c1 [TCC, 3-(4-chlorophenyl)-1-(3,4-dichlorphenyl) urea] | – | – | – | – | – | – | 100 to 200 µg/L | not | showed activity | 60% | 70% | 25.9% | 56%
